Source: patent US20140121256A1, “METHOD OF TREATING MUSCULAR WEAKNESS COMPRISING ADMINISTERING A COMPOSITION COMPRISING AN EFFECTIVE AMOUNT OF HISTAMINE AND/OR SEROTONIN” (BEECH TREE LABS, INC., priority 2012, published 2014)

Tests used:
[1] = test system: normal human BioArtificial Muscles (mBAMs engineered from human skeletal myoblasts); assay: Tetanic (active) force of mBAMs, MyoForce Analysis System; format: cell-based; conditions: 80 nM; after 3-4 days of drug treatment; p<0.001
Experimental: According to this example, a composition comprising histamine and serotonin was administered at 6 different concentrations on normal human BioArtificial Muscles (mBAMs engineered from human skeletal rmyoblasts) for effects on strength (active force generation) and injury using Myomics' MyoForce Analysis System (MFAS™).
A solution comprising 200 times the dosage of the histamine and serotonin present in a typical therapeutic drop (i.e., 1 mg histamine and 16 mg serotonin in PBS) stored at 4° C. was administered to a cell culture comprising human skeletal muscle cells previously isolated from a normal (disease-free) person were used for this study. Cells were expanded in culture in a Growth Medium optimized for human skeletal muscle (SKGM/15) for 5 days before engineering into bioartificial muscles (mBAMs). On the day of engineering, mBAMs, cells were trypsinized and counted following standard laboratory protocols.
A sterile 96 well MyoForce plate was used for tissue engineering the mBAMs. Myomics' Robotic Tissue Engineering Platform was used to engineer 72 mBAMs in approximately 10 minutes by mixing cells with an extracellular matrix solution and casting in the plate wells. The plate containing the mBAMs was maintained for 2 days at 37° C. in SKGM/15, then incubated in an optimized differentiation medium for the remainder of the experiment. […]

[2] = test system: C57BL/10SCSN-Dmd^mdx/J mice; assay: Grip strength tests (triangle and mesh) in mdx mouse model of DMD; format: in vivo; conditions: 1×, 4×, 8×, twice daily
Source text: Female mouse strain C57BL/10SCSN-Dmd^mdx/J (Jackson laboratories) is a strain of mice that is most similar in affliction to humans with DMD. The mdx mutation of Dmd is recessive and heterozygous females are visually indistinguishable from wild-type mice. […] One of the drawbacks of this mouse model is that by six weeks (10 weeks of age) the afflicted mice mimic the wild type control mice. This is attributed to the compensatory function of the dystrophin-related protein utrophin, which is highly up regulated in regenerating muscle fibers in adult Dmd^mdx mutants. The histamine and serotonin formulation was evaluated using this mouse model to determine its effects on DMD.
The first experiment conducted focused on whether any difference could be detected in mice receiving the histamine and serotonin formulation vs. control.
Injections started the following day.
Measurements to determine effectiveness of histamine and serotonin formulation were conducted using two different methods: 1. a wire hang test was utilized to see how long the mice were able to hang onto a wire before releasing and falling, and 2. a grip strength meter device (Columbus Instruments) was used to measure the peak force exerted by the animal when pulled. […]
For both of the grip strength tests, ten measurements were taken per mouse and the average was recorded.

CC(=O)OCC(=O)[C@@]12N=C(C)O[C@@H]1C[C@H]1[C@@H]3CCC4=CC(=O)C=C[C@]4(C)[C@H]3[C@@H](O)C[C@@]12C [deflazacort]
increase in tetanic force compared to untreated controls [1]: 32%

NCCc1c[nH]cn1 [histamine]
triangle and mesh grip strength vs PBS control ([2]; third experiment, histamine alone 0.4×): improves performance in both the Triangle and Mesh tests

NCCc1c[nH]c2ccc(O)cc12 [serotonin, 5-hydroxytryptamine]
grip strength tests vs PBS controls ([2]; fourth experiment, serotonin alone 0.4×): no statistically significant differences
